In US8450300B2 (priority 2009, dated 2013):
Read-outs that look alike come from different tables or passages of the source.

Key:
WT isolates [1] = assay: Synergy by the checkerboard method; format: cell-based; conditions: FA/co-drug combination, count
Protocol: (§1) CLSI broth microdilution (BMD) and anaerobic agar dilution (AD) methods were performed. Modifications of standard test methods included adding 10% human serum, adjusting the medium pH to 5, 6, and 8, and synergy was assessed by the checkerboard method.

[2] = system: E. brevis, M. catarrhalis and N. meningitidis; assay: CLSI MIC, spectrum study; format: cell-based
Protocol: as §1

GN species = assay: CLSI MIC, spectrum study; format: cell-based; conditions: all GN except E. brevis, M. catarrhalis, N. meningitidis
Protocol: as §1

S. aureus [3] = assay: Reference broth microdilution susceptibility testing (CLSI M07-A8), Canadian isolates; format: cell-based; conditions: for number of isolates inhibited: Staphylococcus aureus; for R rate: overall S. aureus population
Source text: Methods: To determine a contemporary susceptibility (S) spectrum pattern, 153 GP isolates (123 S. aureus, 15 coagulase-negative staphylococci [CoNS] and 15 S. pyogenes [SPYO]) were collected from 5 Canadian medical centers between 2001 and 2006.

WT isolates [4] = assay: MIC with 10% human serum or adjusted medium pH; format: cell-based
Protocol: as §1

S. aureus [5] = assay: MIC of S. aureus in humans (description); format: cell-based; conditions: Staphylococcus aureus
[6] = cited from earlier work
[7] = system: methicillin-resistant S. aureus (MRSA) strain USA 300; assay: Hollow fiber pharmacodynamic model, resistance potential; format: cell-based; conditions: 600 mg q12h
Protocol: A hollow fiber model was used to evaluate CEM-102 resistance potential in methicillin-resistant S. aureus (MRSA) strain USA 300 (Network of Antimicrobial Resistance in Staphylococcus aureus (NARSA), Chantilly, Va.). USA 300 is a highly virulent strain of MRSA and is the most common community-associated MRSA isolate in the USA. MIC values were determined in accordance with Clinical and Laboratory Standards Institute (CLSI).
The hollow fiber model comprised a two-compartment hollow fiber model (Louie et al. Antimicrob Agents Chemother 52:2486-2496(2008)) consisting of a volume of 15 mL in the central compartment, with multiple ports for the removal of broth, delivery of antibiotics, and collection of bacterial and antimicrobial samples. […] All experiments were performed in duplicate.
Hollow fibers contain 15 ml of media was prepared and inoculated with 10^6 colony forming units (CFU)/mL USA 300 bacteria. One of three different dosing regimens of […] was then applied to the fibers: (1) […] q12h; (2) 1200 mg/ml×2, followed by […], q12h; (3) 1500 mg/ml×2, followed by […], q12h.

[8] = system: Gram-positive (GP) species; assay: CLSI broth microdilution / anaerobic agar dilution MIC, spectrum study; format: cell-based; conditions: all GP isolates
Protocol: as §1

WT isolates [9] = assay: Single-step mutational rates to resistance; format: cell-based
[10] = system: 217 S. aureus Canadian isolates; format: cell-based; conditions: Canadian S. aureus isolates, comparators
Protocol: as §1

Q: Which results are given for gentamicin?
A: Additive (WT isolates [1]): 3; Antagonism (WT isolates [1]): 0; Indeterminate (WT isolates [1]): 0; Indifferent (WT isolates [1]): 1; Synergy: Complete (WT isolates [1]): 1; Synergy: Partial (WT isolates [1]): 1

Q: Which results are given for `Cc1onc(-c2ccccc2)c1C(=O)N[C@@H]1C(=O)N2[C@@H]1SC(C)(C)[C@@H]2C(=O)O` [Oxacillin]?
A: Additive (WT isolates [1]): 1; Antagonism (WT isolates [1]): 0; Indeterminate (WT isolates [1]): 1; Indifferent (WT isolates [1]): 3; Synergy: Complete (WT isolates [1]): 0; Synergy: Partial (WT isolates [1]): 1

Q: For `CC(=O)O[C@H]1C[C@@]2(C)[C@@H](C[C@@H](O)[C@H]3[C@@]4(C)CC[C@@H](O)[C@@H](C)[C@@H]4CC[C@@]32C)/C1=C(\CCC=C(C)C)C(=O)O` [FA, Fusidic acid], which MIC [2] is on record?
A: 0.12 to 0.5 µg/mL

Q: What about the MIC (GN species) of the same compound?
A: ≥ 2 µg/mL

Q: And the number of isolates inhibited (S. aureus [3]; years tested 2001-2002, read-out: No. inhibited at MIC (μg/mL) of: 0.06)?
A: 8 µg/mL

Q: What about the number of isolates inhibited (S. aureus [3]; years tested 2001-2002, read-out: No. inhibited at MIC (μg/mL) of: 0.12) of the same compound?
A: 29 µg/mL

Q: What about the number of isolates inhibited (S. aureus [3]; years tested 2001-2002, read-out: No. inhibited at MIC (μg/mL) of: 0.25) of the same compound?
A: 1 µg/mL

Q: And the number of isolates inhibited (S. aureus [3]; years tested 2001-2002, read-out: No. inhibited at MIC (μg/mL) of: ≧2)?
A: 2 µg/mL

Q: And the number of isolates inhibited (S. aureus [3]; years tested 2003-2004, read-out: No. inhibited at MIC (μg/mL) of: 0.06)?
A: 6 µg/mL

Q: What about the number of isolates inhibited (S. aureus [3]; years tested 2003-2004, read-out: No. inhibited at MIC (μg/mL) of: 0.12) of the same compound?
A: 33 µg/mL

Q: What about the number of isolates inhibited (S. aureus [3]; years tested 2003-2004, read-out: No. inhibited at MIC (μg/mL) of: ≧2) of the same compound?
A: 3 µg/mL

Q: What about the number of isolates inhibited (S. aureus [3]; years tested 2005-2006, read-out: No. inhibited at MIC (μg/mL) of: 0.06) of the same compound?
A: 2 µg/mL

Q: And the number of isolates inhibited (S. aureus [3]; years tested 2005-2006, read-out: No. inhibited at MIC (μg/mL) of: 0.12)?
A: 32 µg/mL

Q: What about the number of isolates inhibited (S. aureus [3]; years tested 2005-2006, read-out: No. inhibited at MIC (μg/mL) of: 0.25) of the same compound?
A: 2 µg/mL

Q: What about the number of isolates inhibited (S. aureus [3]; years tested 2005-2006, read-out: No. inhibited at MIC (μg/mL) of: ≧2) of the same compound?
A: 5 µg/mL

Q: And the “increase in MIC results” value (WT isolates [4]; 10% serum added)?
A: 4 fold

Q: And the “effect of lower media pH on protein binding effects” value (WT isolates [4]; medium pH 5.0-6.0)?
A: decreased negative protein binding effects

Q: What about the MIC (S. aureus [5]) of the same compound?
A: 2.5 µg/mL

Q: And the protein binding [6]?
A: 95-97%

Q: What about the “outcome in hollow fiber model” value [7] of the same compound?
A: regrowth and development of resistance by 24 h and 48 h

Q: And the “MIC values, range” value [8]?
A: 0.06 to 32 µg/mL

Q: And the single-step mutational rate (WT isolates [9]; 4×MIC)?
A: 1.2×10^−6

Q: What about the single-step mutational rate (WT isolates [9]; 16×MIC) of the same compound?
A: 9.8×10^−8

Q: Which Additive (WT isolates [1]) does the source give for `CO[C@H]1/C=C/O[C@@]2(C)Oc3c(C)c(O)c4c(O)c(c(/C=N/N5CCN(C)CC5)c(O)c4c3C2=O)NC(=O)/C(C)=C\C=C\[C@H](C)[C@H](O)[C@@H](C)[C@@H](O)[C@@H](C)[C@H](OC(C)=O)[C@@H]1C` [Rifampin, rifampin] here?
A: 1

Q: What about the Antagonism (WT isolates [1]) of the same compound?
A: 0

Q: What about the Indeterminate (WT isolates [1]) of the same compound?
A: 0

Q: And the Indifferent (WT isolates [1])?
A: 0

Q: And the “Synergy: Complete” value (WT isolates [1])?
A: 0

Q: And the “Synergy: Partial” value (WT isolates [1])?
A: 5

Q: Which results are given for `CC[C@H]1OC(=O)[C@H](C)[C@@H](O[C@H]2C[C@@](C)(OC)[C@@H](O)[C@H](C)O2)[C@H](C)[C@@H](O[C@@H]2O[C@H](C)C[C@H](N(C)C)[C@H]2O)[C@](C)(O)C[C@@H](C)C(=O)[C@H](C)[C@@H](O)[C@]1(C)O` [erythromycin]?
A: resistance rates [10]: 52.1%; R rate (S. aureus [3]): 52.0%

Q: For `CN[C@H](CC(C)C)C(=O)N[C@H]1C(=O)N[C@@H](CC(N)=O)C(=O)N[C@H]2C(=O)N[C@H]3C(=O)N[C@H](C(=O)N[C@H](C(=O)O)c4cc(O)cc(O)c4-c4cc3ccc4O)[C@H](O)c3ccc(c(Cl)c3)Oc3cc2cc(c3O[C@@H]2O[C@H](CO)[C@@H](O)[C@H](O)[C@H]2O[C@H]2C[C@](C)(N)[C@H](O)[C@H](C)O2)Oc2ccc(cc2Cl)[C@H]1O` [Vancomycin], which Additive (WT isolates [1]) is on record?
A: 2

Q: And the Antagonism (WT isolates [1])?
A: 0

Q: And the Indeterminate (WT isolates [1])?
A: 0

Q: And the Indifferent (WT isolates [1])?
A: 4

Q: And the “Synergy: Complete” value (WT isolates [1])?
A: 0

Q: What about the “Synergy: Partial” value (WT isolates [1]) of the same compound?
A: 0

Q: Which Additive (WT isolates [1]) does the source give for `C[C@H]1COc2c(N3CCN(C)CC3)c(F)cc3c(=O)c(C(=O)O)cn1c23` [levofloxacin] here?
A: 0

Q: And the Antagonism (WT isolates [1])?
A: 0

Q: What about the Indeterminate (WT isolates [1]) of the same compound?
A: 2

Q: What about the Indifferent (WT isolates [1]) of the same compound?
A: 4

Q: What about the “Synergy: Complete” value (WT isolates [1]) of the same compound?
A: 0

Q: What about the “Synergy: Partial” value (WT isolates [1]) of the same compound?
A: 0

Q: With `CCC[C@@H]1C[C@@H](C(=O)N[C@@H]([C@H]2O[C@H](SC)[C@H](O)[C@@H](O)[C@H]2O)[C@H](C)Cl)N(C)C1` [clindamycin] as the compound, how does the resistance rates [10] read?
A: 30.9%

Q: And the R rate (S. aureus [3])?
A: 28.5%
